These results are taken from patent US8716292B2, “Riminophenazines with 2-(heteroaryl)amino substituents and their anti-microbial activity” (priority 2010, dated 2014).

≈ marks a conversion by molar mass, not a printed value. Bounds are passed on as bounds.

The first test has as its system Mycobacterium tuberculosis H37Rv strains. The experiment in a line: In vitro assay for antimicrobial susceptibility (microplate Alamar blue MIC). The class given is cell-based. The note with it: Mycobacterium tuberculosis, H37RV, in vitro, Mycobacterium tuberculosis H37Rv strains; read-out: MIC (μg/mL) against H37Rv.
As for `Cc1ccc(Nc2cc3nc4ccccc4n(-c4ccc(F)cc4)c-3c/c2=N\CC2CCCN(C)C2)cn1` (stereo not drawn) [TBI-902, 5-(4-Fluorophenyl)-3-(N-methyl-3-piperidylmethyl)imino-2-(6-methyl-3-pyridyl)amino-3,5-dihydrophenazine], the MIC was 0.058 µg/mL (≈ 0.114 µM). Regarding `Cc1ccc(Nc2cc3nc4ccccc4n(-c4ccc(F)cc4)c-3c/c2=N\C2CCN(CC(C)C)CC2)cn1` [TBI-904, 5-(4-Fluorophenyl)-3-(N-isobutyl-4-piperidyl)imino-2-(6-methyl-3-pyridyl)amino-3,5-dihydrophenazine], the MIC was 0.016 µg/mL (≈ 0.0299 µM). The same measure, in the same setting: the same measure for `Cc1ccc(Nc2cc3nc4ccccc4n(-c4ccc(F)cc4)c-3c/c2=N\C2CCCCC2)cn1` [TBI-905, 5-(4-Fluorophenyl)-3-cyclohexylimino-2-(6-methyl-3-pyridyl)amino-3,5-dihydrophenazine]: 0.057 µg/mL (≈ 0.119 µM); for `Cc1ccc(Nc2cc3nc4ccccc4n(-c4ccc(F)cc4)c-3c/c2=N\[C@H]2CC[C@H](O)CC2)cn1` [TBI-906, 5-(4-Fluorophenyl)-3-(1′,4′-trans-4-hydroxycyclohexyl)imino-2-(6-methyl-3-pyridyl)amino-3,5-dihydrophenazine]: 0.5 µg/mL (≈ 1.01 µM); for `CO[C@H]1CC[C@H](/N=c2\cc3n(-c4ccc(F)cc4)c4ccccc4nc-3cc2Nc2ccc(C)nc2)CC1` [TBI-907, 5-(4-Fluorophenyl)-3-(1′,4′-trans-4-methoxycyclohexyl)imino-2-(6-methyl-3-pyridyl)amino-3,5-dihydrophenazine]: 0.063 µg/mL (≈ 0.124 µM). Still for that read-out and setting: the same measure for `Cc1ccc(Nc2cc3nc4ccccc4n(-c4ccc(F)cc4)c-3c/c2=N\C2CC2)cn1` [TBI-908, 5-(4-Fluorophenyl)-3-cyclopropylimino-2-(6-methyl-3-pyridyl)amino-3,5-dihydrophenazine]: 0.03 µg/mL (≈ 0.0689 µM); for `CC(=O)Nc1ccc(Nc2cc3nc4ccccc4n(-c4ccc(F)cc4)c-3c/c2=N\C(C)C)cn1` [TBI-910, 5-(4-Fluorophenyl)-3-(1-methylethyl)imino-2-(6-acetamino-3-pyridyl)amino-3,5-dihydrophenazine]: 0.147 µg/mL (≈ 0.306 µM); for `CC(=O)Nc1ccc(Nc2cc3nc4ccccc4n(-c4ccc(F)cc4)c-3c/c2=N\C2CCOCC2)cn1` [TBI-911, 5-(4-Fluorophenyl)-3-(4-tetrahydropyranyl)imino-2-(6-acetamino-3-pyridyl)amino-3,5-dihydrophenazine]: 0.36 µg/mL (≈ 0.689 µM). Turning to `CC(=O)Nc1ccc(Nc2cc3nc4ccccc4n(-c4ccc(F)cc4)c-3c/c2=N\C2CCN(C)CC2)cn1` [TBI-912, 5-(4-Fluorophenyl)-3-(N-methyl-4-piperidyl)imino-2-(6-acetamino-3-pyridyl)amino-3,5-dihydrophenazine], the MIC amounted to 0.351 µg/mL (≈ 0.655 µM). `CC(=O)Nc1ccc(Nc2cc3nc4ccccc4n(-c4ccc(F)cc4)c-3c/c2=N\C2CCN(CC(C)C)CC2)cn1` [TBI-913, 5-(4-Fluorophenyl)-3-(N-isobutyl-4-piperidyl)imino-2-(6-acetamino-3-pyridyl)amino-3,5-dihydrophenazine]: the MIC was determined as 0.144 µg/mL (≈ 0.249 µM). Same read-out and setting: under `Cc1ccc(Nc2cc3nc4ccc(F)cc4n(-c4ccc(Cl)cc4)c-3c/c2=N\C(C)C)cn1` [TBI-914, 7-Fluoro-5-(4-chlorophenyl)-3-(1-methylethyl)imino-2-(6-methyl-3-pyridyl)amino-3,5-dihydrophenazine] stands more than 0.5 µg/mL. The same measure, in the same setting: the same measure for `CO[C@H]1CC[C@H](/N=c2\cc3n(-c4ccc(F)cc4)c4ccccc4nc-3cc2Nc2ccc(NC(C)=O)nc2)CC1` [TBI-915, 5-(4-Fluorophenyl)-3-(1′,4′-trans-4-methoxycyclohexyl)imino-2-(6-acetamino-3-pyridyl)amino-3,5-dihydrophenazine]: 0.211 µg/mL (≈ 0.383 µM). The same measure, in the same setting: under `CC(=O)Nc1ccc(Nc2cc3nc4ccccc4n(-c4ccc(F)cc4)c-3c/c2=N\C2CCCCC2)cn1` [TBI-916, 5-(4-Fluorophenyl)-3-cyclohexylimino-2-(6-acetamino-3-pyridyl)amino-3,5-dihydrophenazine] stands 0.014 µg/mL (≈ 0.0269 µM); under `CC(=O)Nc1ccc(Nc2cc3nc4ccccc4n(-c4ccc(F)cc4)c-3c/c2=N\[C@H]2CC[C@H](O)CC2)cn1` [TBI-917, 5-(4-Fluorophenyl)-3-(1′,4′-trans-4-hydroxycyclohexyl)imino-2-(6-acetamino-3-pyridyl)amino-3,5-dihydrophenazine], 1 µg/mL (≈ 1.86 µM). Regarding `Cc1ccc(Nc2cc3nc4ccc(F)cc4n(-c4ccc(Cl)cc4)c-3c/c2=N\C2CCCCC2)cn1` [TBI-918, 7-Fluoro-5-(4-chlorophenyl)-3-cyclohexylimino-2-(6-methyl-3-pyridyl)amino-3,5-dihydrophenazine], the MIC stood at 0.253 µg/mL (≈ 0.494 µM). In the case of `Fc1ccc(-n2c3c/c(=N\C4CCCCC4)c(Nc4cccnc4)cc-3nc3ccccc32)cc1` [TBI-920, 5-(4-Fluorophenyl)-3-cyclohexylimino-2-(3-pyridyl)amino-3,5-dihydrophenazine], the MIC came to 0.029 µg/mL (≈ 0.0626 µM). Regarding `O[C@H]1CC[C@H](/N=c2\cc3n(-c4ccc(F)cc4)c4ccccc4nc-3cc2Nc2cccnc2)CC1` [TBI-921, 5-(4-Fluorophenyl)-3-(1′,4′-trans-4-hydroxycyclohexyl)imino-2-(3-pyridyl)amino-3,5-dihydrophenazine], the MIC was determined as 0.434 µg/mL (≈ 0.905 µM). `Fc1ccc(-n2c3c/c(=N\C4CC4)c(Nc4cccnc4)cc-3nc3ccccc32)cc1` [TBI-922, 5-(4-Fluorophenyl)-3-cyclopropylimino-2-(3-pyridyl)amino-3,5-dihydrophenazine]: the MIC was 0.012 µg/mL (≈ 0.0285 µM). For the molecule `Fc1ccc(-n2c3c/c(=N\C4CCC4)c(Nc4cccnc4)cc-3nc3ccccc32)cc1` [TBI-923, 5-(4-Fluorophenyl)-3-cyclobutylimino-2-(3-pyridyl)amino-3,5-dihydrophenazine], the MIC amounted to 0.021 µg/mL (≈ 0.0482 µM).

In the case of `COc1ncccc1Nc1cc2nc3ccc(F)cc3n(-c3ccc(Cl)cc3)c-2c/c1=N\C1CCC(OC)CC1` (stereo not drawn) [TBI-924], the MIC came to 0.06 µg/mL (≈ 0.108 µM).

As to `COC1CCC(/N=c2\cc3n(-c4ccc(Cl)cc4)c4cc(F)ccc4nc-3cc2Nc2ccc(C)nc2)CC1` (stereo not drawn) [TBI-925], the MIC came out at 0.078 µg/mL (≈ 0.144 µM). `COc1ncccc1Nc1cc2nc3ccc(F)cc3n(-c3ccc(Cl)cc3)c-2c/c1=N\C1CCCCC1` [TBI-927, 7-Fluoro-5-(4-chlorophenyl)-3-cyclohexylimino-2-(2-methoxy-3-pyridyl)amino-3,5-dihydrophenazine]: the MIC was found to be 0.04 µg/mL (≈ 0.0758 µM). As for `COc1ncccc1Nc1cc2nc3ccc(F)cc3n(-c3ccc(Cl)cc3)c-2c/c1=N\C1CCOCC1` [TBI-928], the MIC stood at 0.5 µg/mL (≈ 0.943 µM). Turning to `COc1ncccc1Nc1cc2nc3cc(F)ccc3n(-c3ccc(Cl)cc3)c-2c/c1=N\C(C)C` [TBI-929, 8-Fluoro-5-(4-chlorophenyl)-3-(1-methylethyl)imino-2-(2-methoxy-3-pyridyl)amino-3,5-dihydrophenazine], the MIC was 0.125 µg/mL (≈ 0.256 µM). On the same count and under the same terms, under `COc1ccc(Nc2cc3nc4ccccc4n(-c4ccc(F)cc4)c-3c/c2=N\C(C)C)cn1` [TBI-930] stands 0.494 µg/mL (≈ 1.09 µM); under `COc1ccc(Nc2cc3nc4ccccc4n(-c4ccc(F)cc4)c-3c/c2=N\C2CC2)cn1` [TBI-931, 5-(4-Fluorophenyl)-3-cyclopropyimino-2-(6-methoxy-3-pyridyl)amino-3,5-dihydrophenazine], 0.238 µg/mL (≈ 0.527 µM). Same read-out and setting: under `COc1ccc(Nc2cc3nc4ccccc4n(-c4ccc(F)cc4)c-3c/c2=N\C2CCCCC2)cn1` [TBI-932, 5-(4-Fluorophenyl)-3-cyclohexylimino-2-(6-methoxy-3-pyridyl)amino-3,5-dihydrophenazine] stands 0.148 µg/mL (≈ 0.3 µM).

Turning to `COc1ccc(Nc2cc3nc4ccccc4n(-c4ccc(F)cc4)c-3c/c2=N\[C@H]2CC[C@H](OC)CC2)cn1` [TBI-933, 5-(4-Fluorophenyl)-3-(1′,4′-trans-4-methoxycyclohexyl)imino-2-(6-methoxy-3-pyridyl)amino-3,5-dihydrophenazine], the MIC amounted to 0.175 µg/mL (≈ 0.334 µM). Turning to `COc1ccc(Nc2cc3nc4ccccc4n(-c4ccc(F)cc4)c-3c/c2=N\C2CCC2)cn1` [TBI-934, 5-(4-Fluorophenyl)-3-cyclobutylimino-2-(6-methoxy-3-pyridyl)amino-3,5-dihydrophenazine], the MIC came to 0.3 µg/mL (≈ 0.644 µM). With `COc1ccc(Nc2cc3nc4ccccc4n(-c4ccc(F)cc4)c-3c/c2=N\C2CCOCC2)cn1` [TBI-935, 5-(4-Fluorophenyl)-3-(4-tetrahydropyranyl)imino-2-(6-methoxy-3-pyridyl)amino-3,5-dihydrophenazine], the MIC is 0.205 µg/mL (≈ 0.414 µM).

Consider `COc1ncccc1Nc1cc2nc3cc(F)ccc3n(-c3ccc(Cl)cc3)c-2c/c1=N\C1CCC(OC)CC1` (stereo not drawn) [TBI-936, 8-Fluoro-5-(4-chlorophenyl)-3-(4-methoxycyclohexyl)imino-2-(2-methoxy-3-pyridyl)amino-3,5-dihydrophenazine], for which the MIC turned out to be 0.06 µg/mL (≈ 0.108 µM). As to `COc1ncccc1Nc1cc2nc3cc(F)ccc3n(-c3ccc(Cl)cc3)c-2c/c1=N\C1CCOCC1` [TBI-937, 8-Fluoro-5-(4-chlorophenyl)-3-(4-tetrahydropyranyl)imino-2-(2-methoxy-3-pyridyl)amino-3,5-dihydrophenazine], the MIC was 0.125 µg/mL (≈ 0.236 µM). In the case of `COC1CCC(/N=c2\cc3n(-c4ccc(Cl)cc4)c4ccc(F)cc4nc-3cc2Nc2ccc(C)nc2)CC1` (stereo not drawn) [TBI-938, 8-Fluoro-5-(4-chlorophenyl)-3-(4-methoxycyclohexyl)imino-2-(6-methyl-3-pyridyl)amino-3,5-dihydrophenazine], the MIC was found to be 0.125 µg/mL (≈ 0.231 µM). Same read-out and setting: the same measure for `COc1ccc2nc3cc(Nc4cccnc4OC)/c(=N/C(C)C)cc-3n(-c3ccc(Cl)cc3)c2c1` [TBI-939, 7-Methoxy-5-(4-chlorophenyl)-3-(1-methylethyl)imino-2-(2-methoxy-3-pyridyl)amino-3,5-dihydrophenazine]: 0.125 µg/mL (≈ 0.25 µM); for `Cc1ccncc1Nc1cc2nc3ccccc3n(-c3ccc(F)cc3)c-2c/c1=N\C1CC1` [TBI-940, 5-(4-Fluorophenyl)-3-cyclopropylimino-2-(4-methyl-3-pyridyl)amino-3,5-dihydrophenazine]: 0.062 µg/mL (≈ 0.142 µM).

The test is the same for the next values; noted with them: in vitro, Mycobacterium tuberculosis H37Rv strains.
`COc1ncccc1Nc1cc2nc3ccc(F)cc3n(-c3ccc(Cl)cc3)c-2c/c1=N\C(C)C` [TBI-926, 7-Fluoro-5-(4-chlorophenyl)-3-(1-methylethyl)imino-2-(2-methoxy-3-pyridyl)amino-3,5-dihydrophenazine]: the “MIC (μg/mL) against H37Rv” value was 0.103 µg/mL (≈ 0.211 µM).
